Measurements: patent publication US20020016330A1, “Materials and methods for killing nematodes and nematode eggs” (priority 2000, published 2002)

Columns and labels:
Caenorhabditis elegans [1] = test: C. elegans L1 nematicidal dose response, 5 day visual viability score (3-fold dilutions); assay type: in vivo; design: key: Dead: only stiff L1s (no movement); Dead (L4): worms are dead, but at a later larval stage; majority of worms are L1 (based on size); majority of worms are L2 (based on size); majority of worms are L3 (based on size); majority of worms are L4 (based on size); AD: majority of worms are adult; #AD: 5 adult worms or less; B!: sterile (0-25 progeny); B: low broodsize (25-100 progeny); ˜B: moderate broodsize (100-250 progeny); <: reduced broodsize (250-500 progeny); OK: no effect (˜1000+ progeny); settings: for 5 Day Visual Score V4: 2.6 μM; for 5 Day Visual Score V5: 0.9 μM; for 5 Day Visual Score V3: 7.8 μM; for 5 Day Visual Score V2: 23.3 μM; for 5 Day Visual Score V1: 70 μM; for 5 Day Visual Score V6: 0.3 μM
Method: Caenorhabditis elegans adults were grown on Nematode Growth Medium (NGM) until they produced eggs, then the adults were removed.
The eggs were allowed to hatch, and the L1 larvae collected. See The Nematode Caenorhabditis elegans (1988) Cold Spring Harbor Laboratory Press. Using a Matrix Programmable Pipette, the L1s were distributed into 96-well tissue culture plates, 20 L1 in 50 μl NGM per well. Antibiotic/Antimyotic was added to each well, and 1% by weight E. coli strain HB101. The subject anthelmintic compounds were stored at 5 mM in 100% DMSO. 0.7 μl of compounds 1-31 were added to the left-most column of wells to yield a final concentration of 70 μM in 1.4% DMSO, with 1.4% DMSO only as the control. The compounds were then subjected to 5 more 3-fold dilutions from left to right to yield 6 column concentrations of 70 μM, 23.3 μM, 7.8 μM, 2.6 μM, 0.9 μM, and 0.3 μM. Plates were stored in air-tight Rubbermaid plastic boxes at 20° C. The nematodes had cleared all control wells by day 4, and nematode viability was scored by visual examination under a 100× dissecting microscope on day 5. A visual viability scoring system was used as follows:
Column VI has a compound concentration of 70 μM with sequential 3-fold dilutions reported in columns V2, V3, V4, V5, and V6, respectively, such that the V6 concentration was 0.3 μM.
(§1) The nematicidal activity of anthelmintic Compositions 48-68 were determined in accordance with the procedure outlined in Example 2.

Caenorhabditis elegans [2] = test: Initial HTS Run (mOD, % Run, visual score); settings: in vivo
Method: as §1

Caenorhabditis elegans [3] = test: Follow-up HTS Run (mOD, % Run, visual score); settings: in vivo
Method: as §1

[4] = Table 3, procedure of Example 2

| Compound | 5 Day Visual Score V4 (Caenorhabditis elegans [1]; scored day 5) | 5 Day Visual Score V5 (Caenorhabditis elegans [1]; scored day 5) | 5 Day Visual Score V3 (Caenorhabditis elegans [1]; scored day 5) | 5 Day Visual Score V2 (Caenorhabditis elegans [1]; scored day 5) | 5 Day Visual Score V1 (Caenorhabditis elegans [1]; scored day 5) | 5 Day Visual Score V6 (Caenorhabditis elegans [1]; scored day 5) | further results |
| --- | --- | --- | --- | --- | --- | --- | --- |
| CCCCOc1ccc(C(=O)N2CC(OCCCc3ccccc3)CC2C(=O)NCc2ccccc2Br)cc1 (centres unmarked) [AKC 102] | L3 |  |  |  |  |  |  |
| CCCCOc1ccc(-c2noc(C3CCC(NC(=O)c4ccc5c(c4)OCO5)CC3)n2)cc1 (centres unmarked) [AKC 103] |  | L4/#AD/B | Dead(L4) | Dead(L3/L4 |  |  |  |
| CCOc1ccccc1C1=NOC(c2cccc3ccccc23)C1C(=O)NCc1ccc(OC(F)(F)F)cc1 (centres unmarked) [AKC 105] | L2/Dead(L | L2/Dead(L | L2/Dead(L3) | L2/Dead(L3) | L2/Dead(L3) |  |  |
| O=C(Nc1ccc(OC(F)(F)F)cc1)NC1CCC(c2nc(-c3ccccc3)no2)CC1 (centres unmarked) [AKC 107] | Dead(L4) |  |  | Dead(L2/L3) | Dead | L2/Dead(L |  |
| O=C(Nc1ccc(Br)cc1)N1CCC(c2nc(-c3ccccc3)no2)CC1 [AKC 108] | L1 |  | L1 | Dead | Dead |  |  |
| O=C(NCCc1ccccc1F)C1C(c2ccccc2Cl)=NOC1c1ccc(-c2ccccc2)cc1 (centres unmarked) [AKC 110] | L1 | L1 | L1 | L1 | L1 | L1 |  |
| COc1ccccc1-c1noc(C(C)CNC(=O)Nc2ccc(OC(F)(F)F)cc2)n1 (centres unmarked) [AKC 111] | Dead(L3/L |  | L2 | Dead | Dead | OK (no effect (˜1000+ progeny)) |  |
| Cc1ccc(-c2noc(C3CCC(CNC(=O)Nc4ccc(OC(F)(F)F)cc4)CC3)n2)cc1C (centres unmarked) [AKC 112] |  | #AD/˜B |  |  |  | OK (no effect (˜1000+ progeny)) |  |
| O=C(NCC1CCC(c2nc(-c3ccccc3)no2)CC1)Nc1ccc(OC(F)(F)F)cc1 (centres unmarked) [AKC 113] | Dead(L2/L |  | Dead | Dead | Dead | L4/#AD/B |  |
| O=C(Nc1ccc(Br)cc1)NC1CCC(c2nc(-c3ccccc3)no2)CC1 (centres unmarked) [AKC 114] | L3/Dead(L |  | L3 | L3/Dead(L4) | Dead |  |  |
| O=C(NCCCCCc1nc(-c2ccccc2)no1)Nc1ccc(OC(F)(F)F)cc1 [AKC 115] | Dead(L2) | Dead(L2/L | L2/Dead(L2) | Dead(L2/L3) | Dead |  |  |
| CC(C)(C)C1=NOC(c2ccc(-c3ccccc3)cc2)C1C(=O)NCCc1ccccc1F (centres unmarked) [AKC 120] |  | #AD/˜B | L1 |  | L1 | OK (no effect (˜1000+ progeny)) |  |
| COc1ccc(C2=NOC(c3ccc(-c4ccccc4)cc3)C2C(=O)NCCc2ccccc2F)cc1 (centres unmarked) [AKC 121] | #AD/˜B |  |  | L1 | L1 |  |  |
| CCOc1ccc(C2ON=C(c3ccc(F)cc3)C2C(=O)NCCc2ccc(F)cc2)cc1 (centres unmarked) [AKC 122] |  |  |  | L1 | Dead | OK (no effect (˜1000+ progeny)) |  |
| CCOc1ccc(C2ON=C(c3ccc(N(C)C)cc3)C2C(=O)NCCc2ccc(F)cc2)cc1 (centres unmarked) [AKC 123] |  |  |  |  | L1 | #AD/˜B |  |
| CCOc1cccc(C2ON=C(c3ccccc3OCC)C2C(=O)NCCc2ccc(OC)c(OCC)c2)c1 (centres unmarked) [AKC 124] | L4/#AD/B | L4/#AD/B |  |  |  | L4/#AD/B |  |
| CCOc1cccc(C2ON=C(c3ccccc3OCC)C2C(=O)NCc2ccc(OC(F)(F)F)cc2)c1 (centres unmarked) [AKC 125] | L2 |  | L2 | L2/Dead(L4) | L2/Dead(L3) |  |  |
| CCCCOc1ccc(C(=O)N2CC(OCCCc3ccccc3)CC2C(=O)NCc2ccccc2OC)cc1 (centres unmarked) [AKC 126] | #AD/˜B |  |  |  |  | #AD/˜B |  |
| Cc1ccc(C(CC(=O)c2ccccc2)Nc2ccc(I)cc2)o1 (centres unmarked) [AKC 128] | L1 | #AD/˜B | Dead | Dead | Dead | OK (no effect (˜1000+ progeny)) |  |
| Cc1ccc(C(CC(=O)c2ccccc2)Nc2ccc(I)cc2F)o1 (centres unmarked) [AKC 129] |  | OK (no effect (˜1000+ progeny)) |  | Dead | Dead |  |  |
| CCC(=O)C(C)C(Nc1cc(Br)c(C)c(Br)c1)c1ccc(C)o1 (centres unmarked) [AKC 131] | #AD/˜B | #AD/˜B | #AD/˜B | L1 | Dead |  |  |
| CCCc1ccc(C(Nc2ccc(-c3ccccc3)cc2)C2CCCCC2=O)cc1 (centres unmarked) [AKC 132] |  |  | Dead | Dead | Dead(L2) | Dead |  |
| Fc1ccc(N2CCN(c3nc(NCc4ccc(C(F)(F)F)cc4)ns3)CC2)cc1 [AKC 135] |  |  |  | L1 | Dead |  |  |
| CC(C)(C)c1csc(NC(=O)Cc2cn(Cc3ccccc3Cl)c3ccc(Cl)cc23)n1 [AKC 157] |  |  |  |  |  |  | 5 Day Visual Score V6 (Caenorhabditis elegans [1]; [4]): OK (no effect (˜1000+ progeny)); 5 Day Visual Score V5 (Caenorhabditis elegans [1]; [4]): OK (no effect (˜1000+ progeny)); 5 Day Visual Score V4 (Caenorhabditis elegans [1]; [4]): < (reduced broodsize (250-500 progeny)); 5 Day Visual Score V3 (Caenorhabditis elegans [1]; [4]): < (reduced broodsize (250-500 progeny)); 5 Day Visual Score V2 (Caenorhabditis elegans [1]; [4]): OK (no effect (˜1000+ progeny)); Initial HTS Run % Run (Caenorhabditis elegans [2]): 98%; Initial HTS Run mOD (Caenorhabditis elegans [2]): 120 mOD; Follow-up HTS Run % Run (Caenorhabditis elegans [3]): 108%; Follow-up HTS Run mOD (Caenorhabditis elegans [3]): 174 mOD |
| CC(C)(C)c1csc(NC(=O)Cc2cn(Cc3cccnc3)c3ccc(Cl)cc23)n1 [AKC 162] |  |  |  |  |  |  | 5 Day Visual Score V6 (Caenorhabditis elegans [1]; [4]): OK (no effect (˜1000+ progeny)); 5 Day Visual Score V5 (Caenorhabditis elegans [1]; [4]): OK (no effect (˜1000+ progeny)); 5 Day Visual Score V4 (Caenorhabditis elegans [1]; [4]): OK (no effect (˜1000+ progeny)); 5 Day Visual Score V3 (Caenorhabditis elegans [1]; [4]): OK (no effect (˜1000+ progeny)); 5 Day Visual Score V2 (Caenorhabditis elegans [1]; [4]): OK (no effect (˜1000+ progeny)); 5 Day Visual Score V1 (Caenorhabditis elegans [1]; [4]): < (reduced broodsize (250-500 progeny)); Initial HTS Run % Run (Caenorhabditis elegans [2]): 111%; Initial HTS Run Visual Score (Caenorhabditis elegans [2]): L2/L3/1AD/B!; Initial HTS Run mOD (Caenorhabditis elegans [2]): 136 mOD; Follow-up HTS Run % Run (Caenorhabditis elegans [3]): 111%; Follow-up HTS Run Visual Score (Caenorhabditis elegans [3]): B (low broodsize (25-100 progeny)); Follow-up HTS Run mOD (Caenorhabditis elegans [3]): 179 mOD |
| CCC1CCCCN1c1cc(Oc2ccc3oc4ccccc4c3c2)ncn1 (centres unmarked) [AKC 340] |  |  |  | L1 | L1 |  |  |
| O=C(NCCc1ccccc1F)C1C(c2ccc(F)cc2)=NOC1c1ccc(-c2ccccc2)cc1 (centres unmarked) [AKC 2153] |  |  |  | L1 | L1 |  |  |
